Results reported in patent US7148230B2, “Quinazoline derivatives” (AstraZeneca AB, priority 2003, dated 2006).

Assays:
EGFR tyrosine kinase = target: T1, EGFR tyrosine kinase (Homo sapiens, UniProt P00533); assay: Protein tyrosine kinase phosphorylation assay, Test (a), EGFR; format: biochemical; conditions: ATP at Km concentration; read-out: IC50 (nM) Test (a) (Inhibition of EGFR tyrosine kinase protein phosphorylation)
T1 construct: Recombinant intracellular fragments of EGFR, erbB2 and erbB4; made in house; host or cells: baculovirus/Sf21 insect cells (cleared lysate used)
Experimental: (§1) This test measures the ability of a test compound to inhibit the phosphorylation of a tyrosine containing polypeptide substrate by an erbB tyrosine kinase enzyme.
(§2) Recombinant intracellular fragments of EGFR, erbB2 and erbB4 (accession numbers X00588, X03363 and L07868 respectively) were cloned and expressed in the baculovirus/Sf21 system. Lysates were prepared from these cells by treatment with ice-cold lysis buffer (20 mM N-2-hydroxyethylpiperizine-N′-2-ethanesulfonic acid (HEPES) pH7.5, 150 mM NaCl, 10% glycerol, 1% Triton X-100, 1.5 mM MgCl2, 1 mM ethylene glycol-bis(β-aminoethyl ether) N′,N′,N′,N′-tetraacetic acid (EGTA), plus protease inhibitors and then cleared by centrifugation.
(§3) Constitutive kinase activity of the recombinant protein was determined by its ability to phosphorylate a synthetic peptide (made up of a random co-polymer of Glutamic Acid, Alanine and Tyrosine in the ratio of 6:3:1). […]
(§4) The immobilised phospho-peptide product of the reaction was detected by immunological methods. […] After further washing, HRP activity in each well of the plate was measured colorimetrically using 22′-Azino-di-[3-ethylbenzthiazoline sulfonate (6)]diammonium salt crystals (ABTS™ from Roche) as a substrate.
(§5) Quantification of colour development and thus enzyme activity was achieved by the measurement of absorbance at 405 nm on a Molecular Devices ThermoMax microplate reader. […]

erbB2 tyrosine kinase = target: T2, erbB2 tyrosine kinase (Homo sapiens, UniProt P04626); assay: Protein tyrosine kinase phosphorylation assay, Test (a), erbB2; format: biochemical; conditions: ATP at Km concentration; read-out: IC50 (nM) Test (a) (Inhibition of erbB2 tyrosine kinase protein phosphorylation)
T2 construct: Recombinant intracellular fragments of EGFR, erbB2 and erbB4; made in house; host or cells: baculovirus/Sf21 insect cells (cleared lysate used)
Experimental: as §1, §2, §3, §4, §5

T2 sequence (P04626 676-1255 limits assumed): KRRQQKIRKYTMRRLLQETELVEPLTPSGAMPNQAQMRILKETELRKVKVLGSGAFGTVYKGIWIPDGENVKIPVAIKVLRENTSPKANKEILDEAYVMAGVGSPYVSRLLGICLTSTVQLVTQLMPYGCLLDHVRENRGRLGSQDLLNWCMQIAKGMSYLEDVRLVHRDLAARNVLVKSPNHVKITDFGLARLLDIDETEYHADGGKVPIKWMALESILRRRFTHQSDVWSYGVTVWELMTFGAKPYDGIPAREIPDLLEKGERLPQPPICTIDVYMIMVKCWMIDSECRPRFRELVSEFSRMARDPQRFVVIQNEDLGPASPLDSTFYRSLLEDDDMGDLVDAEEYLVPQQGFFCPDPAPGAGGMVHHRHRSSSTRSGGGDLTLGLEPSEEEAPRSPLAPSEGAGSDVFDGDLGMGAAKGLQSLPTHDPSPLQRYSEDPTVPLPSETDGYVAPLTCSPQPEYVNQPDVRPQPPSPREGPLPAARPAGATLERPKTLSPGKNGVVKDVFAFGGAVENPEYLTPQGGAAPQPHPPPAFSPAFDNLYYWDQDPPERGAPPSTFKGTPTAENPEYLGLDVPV
T1 sequence (P00533 669-1210 limits assumed): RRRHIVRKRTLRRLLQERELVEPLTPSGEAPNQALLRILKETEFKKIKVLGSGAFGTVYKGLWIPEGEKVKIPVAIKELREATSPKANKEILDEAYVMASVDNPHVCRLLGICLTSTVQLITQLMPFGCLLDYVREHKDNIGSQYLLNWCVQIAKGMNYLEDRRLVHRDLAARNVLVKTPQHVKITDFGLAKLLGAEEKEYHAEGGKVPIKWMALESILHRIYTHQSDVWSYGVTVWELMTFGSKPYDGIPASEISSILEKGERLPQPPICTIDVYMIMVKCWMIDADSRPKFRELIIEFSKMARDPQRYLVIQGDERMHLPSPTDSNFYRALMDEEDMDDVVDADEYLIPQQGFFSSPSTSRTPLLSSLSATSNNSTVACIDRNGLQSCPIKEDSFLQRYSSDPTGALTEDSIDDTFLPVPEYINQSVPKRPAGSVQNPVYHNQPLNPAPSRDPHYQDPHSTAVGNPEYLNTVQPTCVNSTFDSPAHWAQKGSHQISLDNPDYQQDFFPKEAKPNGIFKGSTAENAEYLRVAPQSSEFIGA

IC50 (EGFR tyrosine kinase): 3 nM
melting point: 195.5 to 196.5 °C
IC50 (erbB2 tyrosine kinase): 59 nM
SMILES: COc1cc2ncnc(Nc3cccc(Cl)c3F)c2cc1OC1CCN(C(=O)CO)CC1 [Example 1, 4-(3-chloro-2-fluoroanilino)-6-[1-(hydroxyacetyl)piperidin-4-yloxy]-7-methoxyquinazoline]
